# Assays:
# [1] = biological target: T1, ^125 I-h CGRP binding site (CGRP receptor) in rat liver membranes (Rattus norvegicus, UniProt Q63118+Q9JJ74); experiment: 125I-h CGRP binding to rat liver membranes (saturation and competition)
# T1 construct: from tissue; host or cells: rat liver membranes
# Protocol: Membranes were prepared from male Wistar or Sprague-Dawley rats (200-250 grams). Following decapitation, liver, soleus muscle and brain regions were removed to phosphate-buffered saline (PBS), pH 7.4 at 4° C. Tissues were weighed then placed in 5 ml/g tissue of ice-cold 20 mM HEPES buffer, pH 7.4, and homogenized with a Polytron at setting 4 for 10 seconds. An additional 30 ml of cold HEPES was added, and the homogenates centrifuged for 15 minutes at 48,000×g. After discarding the supernatant fluids, membrane pellets were homogenized in 40 ml of fresh HEPES buffer and centrifuged as before. Membranes were washed again by homogenization in buffer and centrifugation.
# The final membrane pellet was resuspended in a volume of 20 mM HEPES buffer containing 0.2 mM PMSF added immediately before use from a stock 0.2 M solution in ethanol. A volume of buffer was used sufficient to yield a concentration of about 0 to about 20 mg original tissue/ml.
# To 12×75 mm glass or polypropylene tubes were added 150 μl of HBBM buffer (20 mM HEPES buffer, pH 7.4, containing 1 mg/ml bacitracin, 1 mg/ml protease-free BSA Fraction V, 4 mM MgCl2) to which 0.2 mM PMSF was added just prior to use.
# To this solution, 50 μl of unlabeled peptide diluted in HBBM buffer at concentrations of […] to 10^-6 M, were added. Control tubes contained HBBM alone. […] Incubations were begun by the addition of 250 μl of buffer containing membranes from 4 mg original weight of tissue, and continued for 60 minutes at room temperature (24° C.).
# Suspensions were then filtered through GF/B glass fiber filters (previously soaked for 5 hours in 0.3% PEI) in a Brandel M-24 harvester. Filters were washed immediately before use with 5 ml of cold PBS, and immediately after filtration with 15 ml cold PBS. Filters were then counted in a gamma-counter.
# The concentration of free ligand was derived by subtracting […] from total ligand added.
# Scatchard and competition curve analysis was performed as described above.
# [2] = test system: insulin-stimulated glycogen synthesis in rat soleus muscle; experiment: Rat soleus muscle insulin-antagonism assay (inhibition of insulin-stimulated glycogen synthesis); format: cell-based; conditions: for Agonist activity in words: amylin receptors in rat skeletal muscle; for IC50: insulin 1000 μU/ml, read-out: IC50 for inhibition of the stimulation of glycogen synthesis by insulin
# Protocol: The ability of insulin to stimulate glycogen synthesis in rat soleus muscle in vitro was measured as described by Leighton B. and Cooper, G. J. S., Nature 335:632-635 (1988), with the following modifications. Rats were unfed for 4 hours prior to sacrifice; muscles were not stretched on clips; bovine serum albumin (BSA) and HEPES were omitted from the assay medium; and, the insulin concentration used was 1000 μU/ml.
# [3] = biological target: ^125 I-CGRP binding in skeletal muscle crude membrane preparations; conditions: Chantry et al.; cited from earlier work
# [4] = Plasma glucose increment after i.v. peptide in fasted anesthetized rats; conditions: doses of 1 and 10 μg i.v.
# [5] = test system: CGRP binding sites in cerebral cortex; conditions: human and rat cerebral cortex; cited from earlier work
# rat liver membranes = experiment: 125I-r amylin binding to rat liver membranes; conditions: 15 pM tracer; 1 μM h CGRP or 1 μM r amylin as displacing peptide
# Text: (§1) Control tubes contained HBBM alone.
# (§2) Filters were then counted in a gamma-counter.
# [6] = test system: rat soleus muscle membranes; experiment: Direct binding of labeled r amylin to rat soleus muscle membranes; conditions: by 1 μM unlabeled r amylin
# Text: as §1, §2
# [7] = biological target: T2, CGRP binding sites (receptors) on liver membrane (Rattus norvegicus, UniProt Q63118+Q9JJ74); conditions: Morishita et al.; read-out: Affinity; cited from earlier work
# T2 construct: host or cells: liver membranes; crude skeletal muscle membranes
# T2 sequence (Q63118 24-464): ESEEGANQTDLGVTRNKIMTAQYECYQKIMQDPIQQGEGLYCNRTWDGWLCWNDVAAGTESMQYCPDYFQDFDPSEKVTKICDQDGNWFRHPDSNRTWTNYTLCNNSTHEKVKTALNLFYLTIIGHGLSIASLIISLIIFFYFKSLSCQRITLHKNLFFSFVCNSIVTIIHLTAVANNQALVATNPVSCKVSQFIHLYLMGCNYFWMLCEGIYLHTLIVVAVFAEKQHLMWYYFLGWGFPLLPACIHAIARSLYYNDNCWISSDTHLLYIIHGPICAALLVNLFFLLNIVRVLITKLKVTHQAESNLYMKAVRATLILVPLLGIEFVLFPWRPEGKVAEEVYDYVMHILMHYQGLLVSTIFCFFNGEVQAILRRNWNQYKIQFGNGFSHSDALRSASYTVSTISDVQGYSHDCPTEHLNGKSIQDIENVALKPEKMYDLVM
# T2 sequence (Q9JJ74 27-148): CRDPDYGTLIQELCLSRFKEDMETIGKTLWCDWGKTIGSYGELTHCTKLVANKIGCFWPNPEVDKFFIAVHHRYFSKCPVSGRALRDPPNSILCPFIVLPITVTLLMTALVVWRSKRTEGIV
# [8] = biological target: T3, calcitonin sites in brain and renal membranes (Homo sapiens, UniProt P30988); conditions: cited from earlier work
# T3 construct: host or cells: brain and renal membranes
# T3 sequence (P30988 25-474): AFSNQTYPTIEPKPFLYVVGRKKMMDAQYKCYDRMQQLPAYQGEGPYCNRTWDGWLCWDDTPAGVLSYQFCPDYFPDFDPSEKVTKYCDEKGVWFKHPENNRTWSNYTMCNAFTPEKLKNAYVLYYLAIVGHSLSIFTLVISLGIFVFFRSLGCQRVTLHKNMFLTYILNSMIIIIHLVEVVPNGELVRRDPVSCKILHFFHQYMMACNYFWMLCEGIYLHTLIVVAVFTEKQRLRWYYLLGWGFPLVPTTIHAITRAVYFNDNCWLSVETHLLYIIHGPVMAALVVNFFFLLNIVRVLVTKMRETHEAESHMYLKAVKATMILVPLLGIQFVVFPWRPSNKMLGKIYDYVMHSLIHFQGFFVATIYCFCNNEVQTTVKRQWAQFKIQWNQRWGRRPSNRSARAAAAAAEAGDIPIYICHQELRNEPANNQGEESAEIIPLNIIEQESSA
# [9] = biological target: ^125 I-CGRP binding sites in membranes from rat cerebellum (Rattus norvegicus, UniProt Q63118+Q9JJ74)
# ^125 I-CGRP binding sites in membranes from rat cerebellum, sequence (Q63118 24-464): as the sequence (Q63118 24-464) above
# ^125 I-CGRP binding sites in membranes from rat cerebellum, sequence (Q9JJ74 27-148): as the sequence (Q9JJ74 27-148) above
# Protocol: Binding assays were carried out as described in Example II.
# Cerebellum membranes were also tested, as this area contains high densities of CGRP receptors but low to absent amounts of the variant CGRP receptor subtypes present in nucleus accumbens (Sexton et al., 1988).
# [10] = biological target: ^125 I-h CGRP binding sites in nucleus accumbens and surrounding regions; experiment: Competition for 125I-h CGRP binding to nucleus accumbens area (basal forebrain) membranes; design: species or system rat
# Text: From the ventral surface of rat brains, cuts were made rostral to the hypothalamus bounded laterally by the olfactory tracts and extending at a 45 angle medially from these tracts. This tissue, containing the nucleus accumbens and surrounding regions, was collected and weighed, and membranes prepared as described in Example I. The region from which tissue was collected as described above is here termed the basal forebrain, and includes the nucleus accumbens and surrounding regions.
# T1 sequence (Q63118 24-464): as the sequence (Q63118 24-464) above
# T1 sequence (Q9JJ74 27-148): as the sequence (Q9JJ74 27-148) above
compound,measurement,setting,value
CC(C)C[C@H](NC(=O)CNC(=O)[C@H](C)NC(=O)[C@H](CC(C)C)NC(=O)[C@H](CCCNC(=N)N)NC(=O)[C@H](Cc1cnc(I)[nH]1)NC(=O)[C@@H](NC(=O)[C@@H](NC(=O)[C@@H]1CSSC[C@H](NC(=O)[C@H](C)N)C(=O)N[C@@H](CC(=O)O)C(=O)N[C@@H]([C@@H](C)O)C(=O)N[C@@H](C)C(=O)N[C@@H]([C@@H](C)O)C(=O)N1)C(C)C)[C@@H](C)O)C(=O)N[C@@H](CC(C)C)C(=O)N[C@@H](CO)C(=O)N[C@@H](CCCNC(=N)N)C(=O)N[C@@H](CO)C(=O)NCC(=O)NCC(=O)N[C@H](C(=O)N[C@H](C(=O)N[C@@H](CCCCN)C(=O)N[C@@H](CC(N)=O)C(=O)N[C@@H](CC(N)=O)C(=O)N[C@@H](Cc1ccccc1)C(=O)N[C@H](C(=O)N1CCC[C@H]1C(=O)N[C@H](C(=O)N[C@@H](CC(N)=O)C(=O)N[C@H](C(=O)NCC(=O)N[C@@H](CO)C(=O)N[C@@H](CCCCN)C(=O)N[C@@H](C)C(=O)N[C@@H](Cc1ccccc1)C(N)=O)C(C)C)[C@@H](C)O)C(C)C)C(C)C)C(C)C [^125 I-h CGRP],Increase of binding to liver membranes in the presence of MgCl2,[1]; 2 mM MgCl2,about 2.8 fold
same,Bmax,"[1]; Scatchard analysis, rat liver membranes",49.4 fmol/mg protein
salmon calcitonin,Agonist activity in words,[2],potent agonists at amylin receptors
same,IC50,[2],0.38 nM
CC(C)C[C@H](NC(=O)[C@H](CC(N)=O)NC(=O)[C@H](CC(N)=O)NC(=O)[C@H](CO)NC(=O)[C@H](CO)NC(=O)[C@H](CCCNC(=N)N)NC(=O)[C@@H](NC(=O)[C@H](CC(C)C)NC(=O)[C@H](Cc1ccccc1)NC(=O)[C@H](CC(N)=O)NC(=O)[C@H](C)NC(=O)[C@H](CC(C)C)NC(=O)[C@H](CCCNC(=N)N)NC(=O)[C@H](CCC(N)=O)NC(=O)[C@@H](NC(=O)[C@H](C)NC(=O)[C@@H]1CSSC[C@H](NC(=O)[C@@H](N)CCCCN)C(=O)N[C@@H](CC(N)=O)C(=O)N[C@@H]([C@@H](C)O)C(=O)N[C@@H](C)C(=O)N[C@@H]([C@@H](C)O)C(=O)N1)[C@@H](C)O)C(C)C)C(=O)NCC(=O)N1CCC[C@H]1C(=O)N[C@H](C(=O)N[C@@H](CC(C)C)C(=O)N1CCC[C@H]1C(=O)N1CCC[C@H]1C(=O)N[C@H](C(=O)N[C@@H](CC(N)=O)C(=O)N[C@H](C(=O)NCC(=O)N[C@@H](CO)C(=O)N[C@@H](CC(N)=O)C(=O)N[C@H](C(=O)N[C@@H](Cc1ccc(O)cc1)C(N)=O)[C@@H](C)O)C(C)C)[C@@H](C)O)C(C)C [amylin],IC50,[3],10 nM
same,Hyperglycemic effect compared with CGRP,[4],more effective hyperglycemic agent
calcitonin,Fold less potent than rat or human CGRP,[5],500-1000 fold
"^125 I-r amylin: rat amylin Bolton-Hunter labeled with 125I at the N-terminal lysine, from Amersham",Specific binding to rat liver membranes,rat liver membranes,No specific binding
same,Proportion of total binding displaceable,[6],15%
CGRP,Ki,[7],~0.009 nM
same,IC50,[3],0.3 nM
same,Potency relative to h CGRP8-37,[1]; liver membranes,4 times
same,Potency relative to r amylin,[1]; liver membranes,about 200 fold
same,Fold less potent in competing for calcitonin sites,[8],500-1000 fold
"CC(C)C[C@H](NC(=O)[C@H](CC(N)=O)NC(=O)[C@H](CC(N)=O)NC(=O)[C@H](CO)NC(=O)[C@H](CO)NC(=O)[C@H](CCCNC(=N)N)NC(=O)[C@@H](NC(=O)[C@H](CC(C)C)NC(=O)[C@H](Cc1ccccc1)NC(=O)[C@H](CC(N)=O)NC(=O)[C@H](C)NC(=O)[C@H](CC(C)C)NC(=O)[C@H](CCCNC(=N)N)NC(=O)[C@H](CCC(N)=O)NC(=O)[C@@H](NC(=O)[C@H](C)NC(=O)[C@@H]1CSSC[C@H](NC(=O)[C@@H](N)CCCCN)C(=O)N[C@@H](CC(N)=O)C(=O)N[C@@H]([C@@H](C)O)C(=O)N[C@@H](C)C(=O)N[C@@H]([C@@H](C)O)C(=O)N1)[C@@H](C)O)C(C)C)C(=O)NCC(=O)N1CCC[C@H]1C(=O)N[C@H](C(=O)N[C@@H](CC(C)C)C(=O)N1CCC[C@H]1C(=O)N1CCC[C@H]1C(=O)N[C@H](C(=O)N[C@@H](CC(N)=O)C(=O)N[C@H](C(=O)NCC(=O)N[C@@H](CO)C(=O)N[C@@H](CC(N)=O)C(=O)N[C@H](C(=O)N[C@@H](Cc1ccc(O)cc1)C(N)=O)[C@@H](C)O)C(C)C)[C@@H](C)O)C(C)C [r amylin, rat amylin]",IC50,[2],8.3 ± 1.9 nM
same,Hill Slope,[9],-0.897
same,Hill Slope,"[1]; competition against ^125 I-h CGRP, rat liver membranes",-0.67
same,IC50,"[10]; Nucleus Accumbens Area, ^125 I-h CGRP tracer, r amylin 2 site fit",5.89 nM
same,IC50,[10]; high affinity site of biphasic inhibition,0.026 nM
eel calcitonin,Agonist activity in words,[2],potent agonists at amylin receptors
same,IC50,[2],0.4 nM
